In article PMC2806825, “The Expression Level of CB1 and CB2 Receptors Determines Their Efficacy at Inducing Apoptosis in Astrocytomas” (PLoS ONE, 2010):

Experiments:
CB1-low DBT cells [1] = assay: Cell viability by WST-1 conversion, CB1-low DBT cells; format: cell-based, mouse
Description: (§1) Cells were expanded in 24-well plates (10^5 cells per well) in culture media (0.5 ml per well). Once they reached ∼70% confluence, they were rinsed with PBS and kept for an additional 24 hrs in serum-deprived media, at which time drugs or vehicle (DMSO, 0.1%) prepared in 50 µl serum-deprived media were directly added to each well. After 1, 3, or 5 days, cell viability was assessed using the Cell Proliferation Reagent WST-1 (Roche, Indianapolis, IN). Briefly, WST-1 reagent (50 µl) was added to each well for 4 hrs at 37°C with 5% CO2, and then WST-1 products were read at 450 nm using Packard SpectraCount™. Apoptosis was assessed using PI and annexin V (Pacific Blue™, Invitrogen). Briefly, cells were detached using trypsin, rinsed with 25°C PBS and resuspended to a density of 10^6 cells per ml of annexin-binding buffer (10 mM HEPES, 140 mM NaCl, 2.5 mM CaCl2, pH 7.4). PI (100 ng) and annexin V were added to 100 µl of cell suspension and incubated at 25°C for 30 min. Additional annexin-binding buffer was added (400 µl) and samples were sorted (10,000 events) on a LSR II flow cytometer (BD Biosciences, San Jose, CA) and the data analyzed using FlowJo (Tree Star, Inc., Ashland, OR).

wild type DBT cells = assay: Cell viability by WST-1 conversion, wild type DBT cells; format: cell-based, mouse
Description: as §1

DBT cells = assay: Cell viability by WST-1 conversion, wild type DBT cells and DBT subclones; format: cell-based, mouse
Description: as §1

CB1 receptors = molecular target: T1, CB1 receptors (Mus musculus, UniProt P47746); assay: Radioligand saturation binding with [3H]CP-55,940 on membranes of CB1-expressing DBT subclones; conditions: mean of 3–5 determinations
T1 construct: expressed in transfected cells
T1 sequence (P47746 whole entry): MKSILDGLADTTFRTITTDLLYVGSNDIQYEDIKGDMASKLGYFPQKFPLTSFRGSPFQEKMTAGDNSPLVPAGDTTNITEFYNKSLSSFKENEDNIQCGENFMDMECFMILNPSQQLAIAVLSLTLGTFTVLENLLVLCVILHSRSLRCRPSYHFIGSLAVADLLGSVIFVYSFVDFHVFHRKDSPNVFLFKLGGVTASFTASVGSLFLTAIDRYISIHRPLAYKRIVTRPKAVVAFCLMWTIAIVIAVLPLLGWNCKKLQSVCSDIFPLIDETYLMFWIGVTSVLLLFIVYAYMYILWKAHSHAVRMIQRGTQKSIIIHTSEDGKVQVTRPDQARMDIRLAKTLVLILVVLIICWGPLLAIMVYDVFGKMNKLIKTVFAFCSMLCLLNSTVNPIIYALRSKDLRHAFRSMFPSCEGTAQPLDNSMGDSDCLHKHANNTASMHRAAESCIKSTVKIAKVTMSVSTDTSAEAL
Description: (§2) Cells (10^6) were expanded in 10 cm dishes using 10 ml culture media. Once they reached ∼70% confluence, they were rinsed with PBS and kept for an additional 24 hrs in serum-deprived media, which is composed of DMEM+GlutaMAX™-I supplemented with fatty acid free bovine serum albumin (0.1%, BSA, Sigma-Aldrich, St. Louis, MO) and insulin-transferin-sodium selenite liquid media (1×, ITS, Sigma-Aldrich). For qPCR, media was removed and cells washed once with 10 ml PBS, then cells were scraped and total RNA isolated using RNeasy extraction kit (QIAGEN) according to the manufacturer's instructions. The following primer and TaqMan probe sequences were generated using Primer Express (Perkin-Elmer Applied Biosystems, Foster City, CA): mCB1 forward, 5′-[…]-3′, reverse, 5′-[…]-3′, probe, 5′-([…])-3′; mCB2 forward, 5′-[…]-3′, reverse, 5′-[…]-3′, probe, 5′-([…])-3′. Total RNA from each sample (2.5 ng) was reverse transcribed in the same 10 µl quantitative PCR reaction mix using the Brilliant Single-Step Quantitative RT-PCR Core Reagent Kit (Stratagene, La Jolla, CA). Combined reactions were carried out on a Stratagene Mx3000P Real-Time Detection System using the following protocol: 30 min single-strand synthesis reaction at 45°C; 40-cycle, two-step PCR amplification (15 sec at 95°C followed by 1 min at 56°C). Duplicate reactions with and without reverse transcriptase were run for each sample. For radioligand binding, media was removed and cells washed once with 10 ml PBS. Cells were scraped in 1 ml buffer (50 mM Tris-HCl, 3 mM MgCl2, 1 mM EDTA, pH 7.4) and pulse homogenized 10 sec using PRO200 tissue homogenizer (PRO Scientific, Oxford, CT). Crude membrane preparations were generated by centrifugation of cell homogenates for 20 min at >10,000×g. Cell pellets were resuspended in buffer containing BSA (0.1%, fatty acid free) and 50 µg protein added to siliconized glass tubes for assay. […] Radioactivity on filters was measured using scintillation counter.

CB2 receptors [2] = molecular target: T2, CB2 receptors (Mus musculus, UniProt P47936); assay: Radioligand saturation binding with [3H]CP-55,940 on membranes of CB2-expressing DBT subclones; conditions: mean of 3–5 determinations
T2 construct: expressed in transfected cells
T2 sequence (P47936 whole entry): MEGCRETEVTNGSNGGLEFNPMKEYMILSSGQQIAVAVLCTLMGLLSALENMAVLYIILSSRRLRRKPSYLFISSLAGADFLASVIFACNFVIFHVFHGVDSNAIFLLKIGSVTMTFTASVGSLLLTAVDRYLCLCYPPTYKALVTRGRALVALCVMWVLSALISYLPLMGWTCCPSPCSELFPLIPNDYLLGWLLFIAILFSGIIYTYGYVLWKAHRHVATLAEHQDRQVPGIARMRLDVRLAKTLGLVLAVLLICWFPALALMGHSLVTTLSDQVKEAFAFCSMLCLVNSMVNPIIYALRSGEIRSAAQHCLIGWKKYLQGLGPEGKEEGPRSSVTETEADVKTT
Description: as §2

wild-type DBT cells [3] = assay: Radioligand binding with [3H]CP-55,940 on wild-type DBT cells; parameters: species or system mouse
Description: as §2, with “56°C).” for “56°C). Duplicate reactions with and without reverse transcriptase were run for each sample. For radioligand binding, media was removed and cells washed once with 10 ml PBS. Cells were scraped in 1 ml buffer (50 mM Tris-HCl, 3 mM MgCl2, 1 mM EDTA, pH 7.4) and pulse homogenized 10 sec using PRO200 tissue homogenizer (PRO Scientific, Oxford, CT). Crude membrane preparations were generated by centrifugation of cell homogenates for 20 min at >10,000×g. Cell pellets were resuspended in buffer containing BSA (0.1%, fatty acid free) and 50 µg protein added to siliconized glass tubes for assay.”

CB2 receptors [4] = molecular target: T2, CB2 receptors; assay: ERK1/2 phosphorylation by Western blot in CB2-expressing DBT subclones; format: cell-based
Description: (§3) Cells were expanded in Costar 24-well plates (10^5 cells per well) in culture media (0.5 ml per well). Once they reached ∼70% confluence, they were rinsed with PBS and kept for an additional 24 hrs in serum-deprived media, at which time point drugs or vehicle (DMSO, 0.1%) prepared in 50 µl serum-deprived media were directly added to each well for the corresponding number of minutes. We chose to directly administer the drugs to cell culture media instead of replacing the media to avoid stress-induced increases in basal kinase phosphorylation (Figure S1). To quantify Erk phosphorylation, reactions were stopped by removing the media and adding NuPAGE® LDS sample buffer (300 µl, Invitrogen, Carlsbad, CA) supplemented with 2-mercaptoethanol (1%). An aliquot of each sample (20 µl) was loaded onto NuPAGE® 4–12% Bis-Tris pre-cast gels (Inivtrogen) and electrophoresed according to the manufacturer's instructions. Gels were electrophoretically transferred to P-nitrocellulose membrane (Millipore, Billerica, MA) and blocked in LiCOR blocking buffer (LiCOR, Lincoln, NE) for 1 hr at 25°C. Membranes were then incubated in blocking buffer containing rabbit anti-phospho-p44/42 antibody (1∶1000, Cell Signaling Technology, Inc., Danvers, MA) for 1 hr at 25°C. Membranes were washed 3 times with Tris (50 mM) buffered saline containing 0.1% Tween-20 (TBS-T). Membranes were then incubated in blocking buffer containing donkey anti-rabbit antibody conjugated to IRDye 800 (1∶7500, Rockland Immunochemicals, Inc., Gilbertsville, PA) for 1 hr at 25°C. Membranes were washed 3 times with TBS-T. The fluorescence intensity of each band was quantified using the LiCOR Odyssey. To quantify AKT, JNK, p38 and GSKβ phosphorylation, reactions were stopped by addition of NP40 cell lysis buffer (100 µl, Invitrogen). Substrate phosphorylation was quantified using a Biosource Multiplex Bead Immunoassay kit (Invitrogen) according to the manufacturer's instructions and using a Luminex 100™ instrument (Luminex, Austin, TX).

CB2 receptors [5] = molecular target: T2, CB2 receptors; assay: AKT phosphorylation by Luminex multiplex immunoassay in CB2-expressing DBT subclones; format: cell-based; conditions: for AKT phosphorylation: 1 µM
Description: as §3

[6] = system: ERK1/2 phosphorylation in wild-type DBT cells; assay: ERK1/2 phosphorylation in wild-type DBT cells; format: cell-based, mouse; conditions: 1 µM
Description: as §3, with “Gels were electrophoretically transferred to P-nitrocellulose membrane (Millipore, Billerica, MA) and blocked in LiCOR blocking buffer (LiCOR, Lincoln, NE) for 1 hr at 25°C. Membranes were then incubated in blocking buffer containing rabbit anti-phospho-p44/42 antibody (1∶1000, Cell Signaling Technology, Inc., Danvers, MA) for 1 hr at 25°C. Membranes were washed 3 times with Tris (50 mM) buffered saline containing 0.1% Tween-20 (TBS-T). Membranes were then incubated in blocking buffer containing donkey anti-rabbit antibody conjugated to IRDye 800 (1∶7500, Rockland Immunochemicals, Inc., Gilbertsville, PA) for 1 hr at 25°C.” left out

[7] = system: AKT phosphorylation in wild type DBT cells; assay: AKT phosphorylation in wild type DBT cells; format: cell-based, mouse; conditions: 1 µM
Description: as §3, with “Gels were electrophoretically transferred to P-nitrocellulose membrane (Millipore, Billerica, MA) and blocked in LiCOR blocking buffer (LiCOR, Lincoln, NE) for 1 hr at 25°C. Membranes were then incubated in blocking buffer containing rabbit anti-phospho-p44/42 antibody (1∶1000, Cell Signaling Technology, Inc., Danvers, MA) for 1 hr at 25°C. Membranes were washed 3 times with Tris (50 mM) buffered saline containing 0.1% Tween-20 (TBS-T). Membranes were then incubated in blocking buffer containing donkey anti-rabbit antibody conjugated to IRDye 800 (1∶7500, Rockland Immunochemicals, Inc., Gilbertsville, PA) for 1 hr at 25°C.” left out

CB2 receptors [8] = molecular target: T2, CB2 receptors; assay: JNK and p38 phosphorylation by Luminex multiplex immunoassay in CB2-high DBT clone; format: cell-based; conditions: 1 µM, lasted throughout 30 min incubation
Description: as §3, with “Gels were electrophoretically transferred to P-nitrocellulose membrane (Millipore, Billerica, MA) and blocked in LiCOR blocking buffer (LiCOR, Lincoln, NE) for 1 hr at 25°C. Membranes were then incubated in blocking buffer containing rabbit anti-phospho-p44/42 antibody (1∶1000, Cell Signaling Technology, Inc., Danvers, MA) for 1 hr at 25°C. Membranes were washed 3 times with Tris (50 mM) buffered saline containing 0.1% Tween-20 (TBS-T). Membranes were then incubated in blocking buffer containing donkey anti-rabbit antibody conjugated to IRDye 800 (1∶7500, Rockland Immunochemicals, Inc., Gilbertsville, PA) for 1 hr at 25°C.” left out

GSK-3β phosphorylation = GSK-3β phosphorylation by Luminex multiplex immunoassay in DBT subclones; format: cell-based, mouse; conditions: any of the subclones, throughout 30 min incubation; data not shown
Description: as §3, with “Gels were electrophoretically transferred to P-nitrocellulose membrane (Millipore, Billerica, MA) and blocked in LiCOR blocking buffer (LiCOR, Lincoln, NE) for 1 hr at 25°C. Membranes were then incubated in blocking buffer containing rabbit anti-phospho-p44/42 antibody (1∶1000, Cell Signaling Technology, Inc., Danvers, MA) for 1 hr at 25°C. Membranes were washed 3 times with Tris (50 mM) buffered saline containing 0.1% Tween-20 (TBS-T). Membranes were then incubated in blocking buffer containing donkey anti-rabbit antibody conjugated to IRDye 800 (1∶7500, Rockland Immunochemicals, Inc., Gilbertsville, PA) for 1 hr at 25°C.” left out

wild-type DBT cells [9] = assay: Apoptosis by propidium iodide and annexin V FACS, wild-type DBT cells; format: cell-based, mouse; conditions: 10 µM
Description: as §1

CB1-low DBT cells [10] = assay: Apoptosis by propidium iodide and annexin V FACS, CB1-low DBT cells; format: cell-based, mouse; conditions: 1 µM
Description: as §1

[11] = antagonist 3 µM added 10 min before CP, CB2 subclones

Cc1c(C(=O)NN2CCCCC2)nn(-c2ccc(Cl)cc2Cl)c1-c1ccc(Cl)cc1 [SR141716A, 5-(4-chlorophenyl)-1-(2,4-dichlorophenyl)-4-methyl-N-(1-piperidyl)-1H-pyrazole-3-carboxamide]
Effect on 1 µM CP-55,940-induced killing (CB1-low DBT cells [1]; antagonist 5 µM pretreatment, CB1-low DBT cells): blocked | Effect on 10 µM CP-55,940-induced cell death (wild type DBT cells; antagonist 5 µM pretreatment, wild type DBT cells): did not affect

CCN(CC)CCCCN1c2ccccc2Oc2ccc(Cl)cc21.Cl [Inhibitor X]
Effect on killing by 1 µM CP-55,940 (WST-1) (DBT cells; 5 µM added 10 min before CP, DBT subclones normally resistant, 5 days): uncovered the ability of 1 µM CP-55,940 to kill | Effect by itself on cell viability (WST-1) (DBT cells; 5 µM, DBT subclones, 5 days): no effect

CCCCCCC(C)(C)c1ccc([C@@H]2C[C@H](O)CC[C@H]2CCCO)c(O)c1 [[^3H]CP-55,940]
Kd (CB1 receptors; CB1-high subclone E5): 0.7 nM | Kd (CB1 receptors; CB1-low subclone E3): 0.8 nM | Kd (CB1 receptors; CB1-mid subclone E7): 0.8 nM | Kd (CB2 receptors [2]; CB2-high subclone 1D6): 0.6 nM | Kd (CB2 receptors [2]; CB2-low subclone 2G5): 0.8 nM | Kd (CB2 receptors [2]; CB2-mid subclone 2H1): 0.4 nM | Radioligand binding (wild-type DBT cells [3]): no binding

COc1cccc(-c2cc(=O)c3ccccc3o2)c1N [PD98059]
Effect on 1 µM CP-55,940-induced killing (CB1-low DBT cells [1]; inhibitor 10 µM pretreatment, CB1-low DBT cells): partially prevented | Effect on 10 µM CP-55,940-induced killing (wild type DBT cells; inhibitor 10 µM pretreatment, wild-type DBT cells): partially prevented

5- (4-chloro-3- methyl- phenyl)-1- [(4- methylphenyl)methyl]- N-(1,3,3- trimethylnorbornan- 2- yl)- pyrazole- 3- carboxamide [SR144528]
Effect on CP-55,940 (1 µM)-induced ERK1/2 phosphorylation (CB2 receptors [4]; [11]): significantly attenuated | Effect on CP-55,940 (1 µM)-induced AKT phosphorylation (CB2 receptors [5]; [11]): antagonized

(−)-cis-3-[2-hydroxy-4-(1,1-dimethylheptyl)phenyl]-trans-4-(3-hydroxypropyl) cyclohexanol [CP-55,940]
ERK1/2 phosphorylation above vehicle-treated controls (CB2 receptors [4]; 1 µM, 3 min, CB2-low, CB2-mid, CB2-high subclones): significant increase | Time of peak of ERK1/2 phosphorylation (CB2 receptors [4]; 1 µM, CB2-expressing subclones): 3 min | Time of return of ERK1/2 phosphorylation to basal (CB2 receptors [4]; 1 µM, CB2-expressing subclones): 10 to 20 min | ERK1/2 phosphorylation [6]: did not affect | AKT phosphorylation (CB2 receptors [5]; CB2-high clone, during the entire 30 min incubation): above 250 % of basal | AKT phosphorylation (CB2 receptors [5]; CB2-high subclone): most pronounced increase | AKT phosphorylation (CB2 receptors [5]; CB2-low and CB2-mid subclones): small, but significant increase | AKT phosphorylation [7]: did not increase | Phosphorylation state of JNK and p38 (CB2 receptors [8]): 150–170 % of basal | Phosphorylation state of GSK-3β (GSK-3β phosphorylation): did not significantly affect | Cell death (WST-1) (CB1-low DBT cells [1]; 1 µM, CB1-low DBT subclone, five days after treatment): ~50% | EC50 (CB1-low DBT cells [1]; CB1-low DBT cells, Figure 3c, read-out: EC50 of cell killing (WST-1)): 560 nM | EC50 (wild type DBT cells; wild type DBT cells, Figure 3c, read-out: EC50 of cell death (WST-1)): 5000 nM | Cell death (WST-1) (DBT cells; 10 µM, wild type DBT cells and all six subclones, five days after treatment): 35–90% | Cell death by apoptosis (wild-type DBT cells [9]; 3 days after treatment): 27% | Cell death by apoptosis (wild-type DBT cells [9]; after five days): 78% | Cell death by apoptosis (CB1-low DBT cells [10]; 3 days after treatment): 15% | Cell death by apoptosis (CB1-low DBT cells [10]; after five days): 48%
